Reference: PMC6364417, “Kinase inhibitor library screening identifies synergistic drug combinations effective in sensitive and resistant melanoma cells” (Journal of Experimental & Clinical Cancer Research : CR, 2019)

Legend:
Test in all cases: Kinase inhibitor library screening, PrestoBlue cell viability, 1 or 10 μM, 72 h
[1] = tested on: A375-GP cells (Dabrafenib-resistant); settings: A375 GP, 72 h
[2] = tested on: A375-XP cells (Vemurafenib-resistant); settings: A375 XP, 72 h; for cell viability, A375 XP, 1μΜ / cell viability, A375 XP, 10μΜ: in %
[3] = tested on: 501Mel-XP cells (Vemurafenib-resistant); settings: 501Mel XP, 72 h
IGR37 cells (parental) = settings: IGR37 Parental, 72 h
501Mel cells (parental) = settings: 501Mel Parental, 72 h
Outline: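 Readout: PrestoBlue signal on a monochromator plate reader, given as percent viability relative to untreated controls. Parental and drug-resistant (Vemurafenib XP, Dabrafenib GP) sublines were tested; at least duplicates per line.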

[4] = tested on: IGR37-GP cells (Dabrafenib-resistant); settings: IGR37 GP, 72 h
[5] = tested on: IGR37-XP cells (Vemurafenib-resistant); settings: IGR37 XP, 72 h
A375 cells (parental) = settings: A375 Parental, 72 h; for cell viability, A375 Parental, 1μΜ / cell viability, A375 Parental, 10μΜ: in %
[6] = tested on: 501Mel-GP cells (Dabrafenib-resistant); settings: 501Mel GP, 72 h

**Q.** With Nc1ccc(-c2ccc3ncc4ccc(=O)n(-c5cccc(C(F)(F)F)c5)c4c3c2)cn1 [Torin 2] as the compound, how does the “Cell viability in kinase inhibitor library screening, A375 GP, 1μΜ” value ([1]; 1μΜ) read?
**A.** 7.9

**Q.** What about the “Cell viability in kinase inhibitor library screening, A375 GP, 10μΜ” value ([1]; 10μΜ) of the same compound?
**A.** 4.0

**Q.** And the “Cell viability in kinase inhibitor library screening, A375 XP, 1μΜ” value ([2]; 1μΜ)?
**A.** 12.1

**Q.** And the “Cell viability in kinase inhibitor library screening, A375 XP, 10μΜ” value ([2]; 10μΜ)?
**A.** 2.9

**Q.** And the “Cell viability in kinase inhibitor library screening, 501Mel XP, 1μΜ” value ([3]; 1μΜ, in %)?
**A.** 3.5

**Q.** And the “Cell viability in kinase inhibitor library screening, 501Mel XP, 10μΜ” value ([3]; 10μΜ, in %)?
**A.** 0.164

**Q.** What about the “Cell viability in kinase inhibitor library screening, IGR37 Parental, 1μΜ” value (IGR37 cells (parental); 1μΜ, in %) of the same compound?
**A.** 13.2

**Q.** What about the “Cell viability in kinase inhibitor library screening, IGR37 Parental, 10μΜ” value (IGR37 cells (parental); 10μΜ, in %) of the same compound?
**A.** 0.851

**Q.** And the “Cell viability in kinase inhibitor library screening, 501Mel Parental, 1μΜ” value (501Mel cells (parental); 1μΜ, in %)?
**A.** 5.6

**Q.** And the “Cell viability in kinase inhibitor library screening, 501Mel Parental, 10μΜ” value (501Mel cells (parental); 10μΜ, in %)?
**A.** 0.8

**Q.** And the Cell viability in kinase inhibitor library screening, IGR37 GP, 10μΜ ([4]; 10μΜ)?
**A.** 2.7%

**Q.** And the “Cell viability in kinase inhibitor library screening, IGR37 GP, 1μΜ” value ([4]; 1μΜ, in %)?
**A.** 20.7

**Q.** What about the Cell viability in kinase inhibitor library screening, IGR37 XP, 10μΜ ([5]; 10μΜ) of the same compound?
**A.** 1.3%

**Q.** What about the “Cell viability in kinase inhibitor library screening, IGR37 XP, 1μΜ” value ([5]; 1μΜ, in %) of the same compound?
**A.** 14.1

**Q.** And the “Cell viability in kinase inhibitor library screening, A375 Parental, 10μΜ” value (A375 cells (parental); 10μΜ)?
**A.** 3.6

**Q.** And the “Cell viability in kinase inhibitor library screening, A375 Parental, 1μΜ” value (A375 cells (parental); 1μΜ)?
**A.** 10.7

**Q.** And the “Cell viability in kinase inhibitor library screening, 501Mel GP, 1μΜ” value ([6]; 1μΜ, in %)?
**A.** 10.9

**Q.** What about the “Cell viability in kinase inhibitor library screening, 501Mel GP, 10μΜ” value ([6]; 10μΜ, in %) of the same compound?
**A.** 0.7

**Q.** For CC(C)(C)c1cc(/C=C(\C#N)C(N)=S)cc(C(C)(C)C)c1O [Tyrphostin AG 879 (AG 879)], which “cell viability, A375 GP, 10μΜ” value ([1]; 10μΜ, in %) is on record?
**A.** 19.7

**Q.** And the “cell viability, A375 XP, 1μΜ” value ([2]; 1μΜ)?
**A.** 105.8

**Q.** What about the “cell viability, A375 XP, 10μΜ” value ([2]; 10μΜ) of the same compound?
**A.** 24.1

**Q.** And the “cell viability, 501Mel XP, 1μΜ” value ([3]; 1μΜ, in %)?
**A.** 98.6

**Q.** What about the “cell viability, 501Mel XP, 10μΜ” value ([3]; 10μΜ, in %) of the same compound?
**A.** 18.3

**Q.** And the “cell viability, IGR37 Parental, 10μΜ” value (IGR37 cells (parental); 10μΜ, in %)?
**A.** 83.4

**Q.** What about the “cell viability, 501Mel Parental, 1μΜ” value (501Mel cells (parental); 1μΜ, in %) of the same compound?
**A.** 115.0

**Q.** What about the “cell viability, 501Mel Parental, 10μΜ” value (501Mel cells (parental); 10μΜ, in %) of the same compound?
**A.** 44.8

**Q.** And the cell viability, IGR37 GP, 10μΜ ([4]; 10μΜ)?
**A.** 60.1%

**Q.** And the cell viability, IGR37 XP, 10μΜ ([5]; 10μΜ)?
**A.** 21.5%

**Q.** And the “cell viability, IGR37 XP, 1μΜ” value ([5]; 1μΜ, in %)?
**A.** 90.9

**Q.** And the “cell viability, A375 Parental, 1μΜ” value (A375 cells (parental); 1μΜ)?
**A.** 103.1

**Q.** And the “cell viability, A375 Parental, 10μΜ” value (A375 cells (parental); 10μΜ)?
**A.** 21.0

**Q.** What about the “cell viability, 501Mel GP, 1μΜ” value ([6]; 1μΜ, in %) of the same compound?
**A.** 110.4

**Q.** What about the “cell viability, 501Mel GP, 10μΜ” value ([6]; 10μΜ, in %) of the same compound?
**A.** 23.6

**Q.** For CCO.N#CC(=C(/N)Sc1ccccc1N)/C(C#N)=C(\N)Sc1ccccc1N [U0126-EtOH], which “cell viability, A375 GP, 1μΜ” value ([1]; 1μΜ, in %) is on record?
**A.** 93.9

**Q.** What about the “cell viability, A375 GP, 10μΜ” value ([1]; 10μΜ, in %) of the same compound?
**A.** 64.5

**Q.** What about the “cell viability, A375 XP, 1μΜ” value ([2]; 1μΜ) of the same compound?
**A.** 94.5

**Q.** What about the “cell viability, A375 XP, 10μΜ” value ([2]; 10μΜ) of the same compound?
**A.** 60.2

**Q.** What about the “cell viability, 501Mel XP, 1μΜ” value ([3]; 1μΜ, in %) of the same compound?
**A.** 86.9

**Q.** What about the “cell viability, 501Mel XP, 10μΜ” value ([3]; 10μΜ, in %) of the same compound?
**A.** 62.2

**Q.** And the “cell viability, IGR37 Parental, 10μΜ” value (IGR37 cells (parental); 10μΜ, in %)?
**A.** 35.1

**Q.** What about the “cell viability, 501Mel Parental, 1μΜ” value (501Mel cells (parental); 1μΜ, in %) of the same compound?
**A.** 94.5

**Q.** What about the “cell viability, 501Mel Parental, 10μΜ” value (501Mel cells (parental); 10μΜ, in %) of the same compound?
**A.** 65.9

**Q.** And the cell viability, IGR37 GP, 10μΜ ([4]; 10μΜ)?
**A.** 83.5%

**Q.** And the “cell viability, IGR37 GP, 1μΜ” value ([4]; 1μΜ, in %)?
**A.** 93.8

**Q.** What about the cell viability, IGR37 XP, 10μΜ ([5]; 10μΜ) of the same compound?
**A.** 45.1%

**Q.** And the “cell viability, IGR37 XP, 1μΜ” value ([5]; 1μΜ, in %)?
**A.** 92.3

**Q.** What about the “cell viability, A375 Parental, 1μΜ” value (A375 cells (parental); 1μΜ) of the same compound?
**A.** 100.1

**Q.** What about the “cell viability, A375 Parental, 10μΜ” value (A375 cells (parental); 10μΜ) of the same compound?
**A.** 39.4

**Q.** What about the “cell viability, 501Mel GP, 1μΜ” value ([6]; 1μΜ, in %) of the same compound?
**A.** 105.2

**Q.** And the “cell viability, 501Mel GP, 10μΜ” value ([6]; 10μΜ, in %)?
**A.** 75.1

**Q.** For Cc1cc(Nc2cc(N3CCN(C)CC3)nc(Sc3ccc(NC(=O)C4CC4)cc3)n2)n[nH]1 [VX-680 (MK-0457, Tozasertib)], which “cell viability (kinase inhibitor library screening)” value ([1]; 1μΜ) is on record?
**A.** 45.1%

**Q.** What about the “cell viability (kinase inhibitor library screening)” value ([1]; 10μΜ) of the same compound?
**A.** 30.5%

**Q.** What about the “cell viability (kinase inhibitor library screening)” value ([2]; 1μΜ) of the same compound?
**A.** 56.4%

**Q.** And the “cell viability (kinase inhibitor library screening)” value ([2]; 10μΜ)?
**A.** 35.5%

**Q.** What about the “cell viability (kinase inhibitor library screening)” value ([3]; 1μΜ) of the same compound?
**A.** 74.1%

**Q.** What about the “cell viability (kinase inhibitor library screening)” value ([3]; 10μΜ) of the same compound?
**A.** 26.8%

**Q.** And the “cell viability (kinase inhibitor library screening)” value (IGR37 cells (parental); 1μΜ)?
**A.** 89.0%

**Q.** And the “cell viability (kinase inhibitor library screening)” value (IGR37 cells (parental); 10μΜ)?
**A.** 63.5%

**Q.** What about the “cell viability (kinase inhibitor library screening)” value (501Mel cells (parental); 1μΜ) of the same compound?
**A.** 85.5%

**Q.** And the “cell viability (kinase inhibitor library screening)” value (501Mel cells (parental); 10μΜ)?
**A.** 48.7%

**Q.** And the “cell viability (kinase inhibitor library screening)” value ([4]; 1μΜ)?
**A.** 94.7%

**Q.** And the “cell viability (kinase inhibitor library screening)” value ([4]; 10μΜ)?
**A.** 11.6%

**Q.** And the “cell viability (kinase inhibitor library screening)” value ([5]; 10μΜ)?
**A.** 3.9%

**Q.** What about the “cell viability (kinase inhibitor library screening)” value (A375 cells (parental); 10μΜ) of the same compound?
**A.** 26.3%

**Q.** What about the “cell viability (kinase inhibitor library screening)” value (A375 cells (parental); 1μΜ) of the same compound?
**A.** 47.5%

**Q.** What about the “cell viability (kinase inhibitor library screening)” value ([6]; 1μΜ) of the same compound?
**A.** 85.8%

**Q.** And the “cell viability (kinase inhibitor library screening)” value ([6]; 10μΜ)?
**A.** 48.3%
